{"source": "ChEMBL document CHEMBL6127112", "about": "“Discovery of Novel Nonpeptidic Proteasome Inhibitors Using Covalent Virtual Screening and Biological Evaluation” (ACS Med Chem Lett, 2024)", "key": {"[1]": {"target": "T1, 20S proteasome (Homo sapiens) (UniProt P49721+P20618+P28074+P28062+P28065+P28072+P25786+P25787+P25788+P25789+P28066+P60900+O14818+Q8TAA3+P40306+A5LHX3+P49720+P28070+Q99436)", "assay": "(§1) Inhibition of human erythrocyte-derived 20S constitutive proteasome protein using Suc-LLVY-AMC as substrate preincubated for 15 mins followed by substrate addition and measured after 30 mins by multimode plate reader analysis", "conditions": "time 45.0 min"}, "[2]": {"target": "20S proteasome", "assay": "as §1"}, "[3]": {"test_system": "NCI-H929", "assay": "Antiproliferative activity against human NCI-H929 cells assessed as reduction in cell viability incubated for 72 hrs by CellTiter 96 non-radioactive cell proliferation assay", "assay_type": "functional, cell-based"}, "[4]": {"assay": "Cytotoxicity against HEK293T cells assessed as reduction in cell viability incubated for 72 hrs by CellTiter 96 non-radioactive cell proliferation assay", "assay_type": "toxicity, cell-based, HEK-293T", "conditions": "human"}, "[5]": {"target": "Cathepsin B (Homo sapiens, UniProt P07858)", "assay": "Inhibition of human Cathepsin B using Ac-RR-AFC as substrate preincubated for 10 to 15 mins followed by substrate addition and measured for 30 to 60 mins by fluorescence based assay"}, "[6]": {"target": "Procathepsin L (Homo sapiens, UniProt P07711)", "sequence (P07711 whole entry)": "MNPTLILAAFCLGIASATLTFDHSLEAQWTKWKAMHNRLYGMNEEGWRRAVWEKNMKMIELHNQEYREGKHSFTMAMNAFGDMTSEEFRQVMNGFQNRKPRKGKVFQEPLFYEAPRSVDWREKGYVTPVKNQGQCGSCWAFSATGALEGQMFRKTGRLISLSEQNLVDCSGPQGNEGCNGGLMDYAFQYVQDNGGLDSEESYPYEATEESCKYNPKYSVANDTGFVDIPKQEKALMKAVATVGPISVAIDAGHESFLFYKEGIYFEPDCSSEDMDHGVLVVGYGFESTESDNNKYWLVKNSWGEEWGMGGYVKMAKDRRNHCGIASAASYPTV", "assay": "Inhibition of Cathepsin L (unknown origin) using AFC based peptide as substrate by fluorometric assay"}, "[7]": {"target": "T2, Caspase-2 (Homo sapiens, UniProt P42575)", "T2 sequence (P42575 whole entry)": "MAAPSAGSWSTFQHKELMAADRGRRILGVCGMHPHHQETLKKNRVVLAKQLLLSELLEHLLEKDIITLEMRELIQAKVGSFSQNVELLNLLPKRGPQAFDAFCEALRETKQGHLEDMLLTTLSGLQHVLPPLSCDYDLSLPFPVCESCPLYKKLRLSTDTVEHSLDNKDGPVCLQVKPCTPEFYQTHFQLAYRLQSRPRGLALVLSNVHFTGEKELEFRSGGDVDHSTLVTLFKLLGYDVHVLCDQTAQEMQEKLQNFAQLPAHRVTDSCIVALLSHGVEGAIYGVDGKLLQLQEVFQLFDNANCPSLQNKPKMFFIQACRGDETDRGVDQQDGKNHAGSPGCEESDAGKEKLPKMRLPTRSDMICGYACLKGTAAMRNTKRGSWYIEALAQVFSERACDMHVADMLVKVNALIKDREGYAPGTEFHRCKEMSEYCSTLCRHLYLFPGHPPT", "assay": "Inhibition of Caspase-2 (unknown origin) by fluorometric assay"}, "[8]": {"target": "Angiotensin-converting enzyme 2 (Homo sapiens, UniProt Q9BYF1)", "sequence (Q9BYF1 whole entry, the tested form may be a part)": "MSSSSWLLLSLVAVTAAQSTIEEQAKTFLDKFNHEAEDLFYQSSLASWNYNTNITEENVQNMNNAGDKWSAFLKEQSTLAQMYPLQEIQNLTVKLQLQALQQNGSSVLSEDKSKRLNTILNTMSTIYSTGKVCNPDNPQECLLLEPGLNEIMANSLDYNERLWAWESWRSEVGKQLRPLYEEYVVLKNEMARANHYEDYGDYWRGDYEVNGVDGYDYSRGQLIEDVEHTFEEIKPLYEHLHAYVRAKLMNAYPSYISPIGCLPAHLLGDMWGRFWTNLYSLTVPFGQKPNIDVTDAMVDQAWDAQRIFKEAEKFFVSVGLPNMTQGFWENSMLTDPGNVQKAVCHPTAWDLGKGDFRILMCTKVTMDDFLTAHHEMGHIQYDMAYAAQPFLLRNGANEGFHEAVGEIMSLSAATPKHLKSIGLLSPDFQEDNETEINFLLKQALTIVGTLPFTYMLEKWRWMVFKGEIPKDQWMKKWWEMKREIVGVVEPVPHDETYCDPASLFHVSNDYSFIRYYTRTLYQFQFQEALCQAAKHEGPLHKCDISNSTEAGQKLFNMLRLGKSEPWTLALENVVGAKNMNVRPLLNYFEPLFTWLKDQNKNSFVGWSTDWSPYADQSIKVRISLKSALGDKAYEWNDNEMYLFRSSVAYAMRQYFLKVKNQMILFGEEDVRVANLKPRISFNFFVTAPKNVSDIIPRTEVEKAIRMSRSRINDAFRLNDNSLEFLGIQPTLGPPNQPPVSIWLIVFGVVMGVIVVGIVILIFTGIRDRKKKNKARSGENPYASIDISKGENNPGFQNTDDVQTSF", "assay": "Inhibition of human His-tagged ACE2 (18 to 740 residues) using ACE2 fluorogenic substrate incubated for 60 mins by fluorescence based assay"}, "[9]": {"target": "T1, 20S proteasome (Homo sapiens)", "assay": "Inhibition of human erythrocyte-derived 20S constitutive proteasome protein at 100 uM using Suc-LLVY-AMC as substrate preincubated for 15 mins followed by substrate addition and measured after 30 mins by multimode plate reader analysis relative to control", "conditions": "time 45.0 min"}, "[10]": {"target": "T1, 20S proteasome (Homo sapiens)", "assay": "Inhibition of human 20S immunoproteasome protein at 100 uM using Suc-LLVY-AMC as substrate preincubated for 15 mins followed by substrate addition and measured after 30 mins by multimode plate reader analysis relative to control", "assay_type": "protein-complex assay", "conditions": "time 45.0 min"}}, "note": "pIC50: −log10 of the molar value. The source made the active and inactive calls. The calls are words filed in the database; no cut-off is given here."}
{"smiles": "COc1cc(NC(=O)C(=O)c2ccn(Cc3ccccc3)c2)cc(OC)c1", "values": [{"measurement": "inhibition", "setting": "[1]", "result": "inactive"}]}
{"smiles": "CCN(CC)C(=O)Cn1cc(C(=O)C(=O)Nc2ccc3c(c2)OCCO3)c2ccccc21", "values": [{"measurement": "pIC50", "setting": "[2]", "result": 4.91}, {"measurement": "Activity", "setting": "[3]", "result": "Dose-Dependent Effect"}, {"measurement": "CC50 at 72 h", "setting": "[4]", "result": "> 200", "unit": "µM"}, {"measurement": "pIC50", "setting": "[5]", "result": "< 4.00"}, {"measurement": "pIC50", "setting": "[6]", "result": "< 4.00"}, {"measurement": "pIC50", "setting": "[7]", "result": "< 4.00"}, {"measurement": "pIC50", "setting": "[8]", "result": "< 4.00"}]}
{"smiles": "CC[C@@H](C)NC(=O)C(=O)c1cn(CC(=O)N2CCOCC2)c2ccccc12", "values": [{"measurement": "pIC50", "setting": "[2]", "result": 4.16}]}
{"smiles": "COc1ccc(NC(=O)C(=O)c2cn(CC(=O)N3CCOCC3)c3ccccc23)cc1OC", "values": [{"measurement": "inhibition", "setting": "[9]", "result": 50, "unit": "%"}, {"measurement": "inhibition", "setting": "[10]", "result": 50, "unit": "%"}, {"measurement": "inhibition", "setting": "[1]", "result": "Dose-Dependent Effect"}, {"measurement": "pIC50", "setting": "[2]", "result": 3.97}]}
{"smiles": "O=C(Nc1ccc2c(c1)OCCO2)C(=O)c1cn(CC(=O)N2CCOCC2)c2ccccc12", "values": [{"measurement": "pIC50", "setting": "[2]", "result": 4.39}]}
{"smiles": "COc1ccc(NC(=O)C(=O)c2cn(CC(=O)N3CCCCC3)c3ccccc23)cc1OC", "values": [{"measurement": "pIC50", "setting": "[2]", "result": 4.73}, {"measurement": "Activity", "setting": "[3]", "result": "Dose-Dependent Effect"}, {"measurement": "CC50 at 72 h", "setting": "[4]", "result": "> 200", "unit": "µM"}, {"measurement": "pIC50", "setting": "[5]", "result": "< 4.00"}, {"measurement": "pIC50", "setting": "[6]", "result": "< 4.00"}, {"measurement": "pIC50", "setting": "[7]", "result": "< 4.00"}, {"measurement": "pIC50", "setting": "[8]", "result": "< 4.00"}]}
{"smiles": "O=C(Nc1ccc2c(c1)OCCO2)C(=O)c1cn(Cc2ccc(Cl)cc2)c2ccccc12", "values": [{"measurement": "inhibition", "setting": "[1]", "result": "inactive"}]}
{"smiles": "Cc1ccc(NC(=O)C(=O)c2cn(CC(=O)N3CCOCC3)c3ccccc23)c(C)c1", "values": [{"measurement": "inhibition", "setting": "[1]", "result": "inactive"}]}
{"smiles": "CC(=O)Nc1ccc(NC(=O)C(=O)c2cn(CC(=O)N3CCOCC3)c3ccccc23)cc1", "values": [{"measurement": "inhibition", "setting": "[1]", "result": "inactive"}]}
{"smiles": "CC(=O)c1cccc(NC(=O)C(=O)c2cn(CC(=O)N3CCOCC3)c3ccccc23)c1", "values": [{"measurement": "pIC50", "setting": "[2]", "result": 4.50}]}
{"smiles": "O=C(Nc1ccccc1)C(=O)c1cn(CC(=O)N2CCOCC2)c2ccccc12", "values": [{"measurement": "inhibition", "setting": "[9]", "result": 55, "unit": "%"}]}
{"smiles": "O=C(Nc1ccccc1-c1ccccc1)C(=O)c1cn(CC(=O)N2CCOCC2)c2ccccc12", "values": [{"measurement": "inhibition", "setting": "[1]", "result": "inactive"}]}
{"smiles": "O=C(NCc1ccccc1)C(=O)c1cn(CC(=O)N2CCOCC2)c2ccccc12", "values": [{"measurement": "inhibition", "setting": "[9]", "result": 26, "unit": "%"}]}
